The experiment concerns the target Streptavidin (SA) (Streptomyces avidinii, UniProt P22629). The experiment in a line: label-free optofluidic microbubble resonator, kinetic kon/koff global Langmuir fit. It counts as binding. To be noted: read-out: ka (M)^-1 (converted). The source says: label-free optofluidic microbubble resonator, kinetic kon/koff global Langmuir fit on Streptavidin (SA)

The structures appear in SMILES notation.

Chain of Streptavidin (SA) (P22629 25-183): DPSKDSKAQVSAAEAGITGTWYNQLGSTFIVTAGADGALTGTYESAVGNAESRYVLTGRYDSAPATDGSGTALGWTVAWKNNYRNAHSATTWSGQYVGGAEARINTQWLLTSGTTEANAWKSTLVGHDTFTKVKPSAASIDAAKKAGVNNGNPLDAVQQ

Consider `C=CCc1ccc(O)c(-c2cc(CC=C)ccc2O)c1` [magnolol], for which the Kd was 2.13e-11 M.

Values taken from publication PMC6187366, “Highly Sensitive Label-Free Detection of Small Molecules with an Optofluidic Microbubble Resonator” (Micromachines, 2018).
